Reference: PubChem BioAssay (NCI)
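Briefly, cells in 96-well plates were exposed to five compound concentrations for 48 h, and endpoints were estimated by linear interpolation. TGI: total growth inhibition.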

How the values were obtained:
Assay in all cases: inhibition of tumour cell growth, NCI panel, 48 h
SK-MEL-2 melanoma = tested on: SK-MEL-2 melanoma
SK-OV-3 ovarian = tested on: SK-OV-3 ovarian
UACC-257 melanoma = tested on: UACC-257 melanoma
NCI-H522 lung = tested on: NCI-H522 lung
SF-268 CNS = tested on: SF-268 CNS
UACC-62 melanoma = tested on: UACC-62 melanoma
U251 CNS = tested on: U251 CNS
HL-60(TB) leukemia = tested on: HL-60(TB) leukemia
HS 578T breast = tested on: HS 578T breast
OVCAR-5 ovarian = tested on: OVCAR-5 ovarian
RXF 393 renal = tested on: RXF 393 renal
UO-31 renal = tested on: UO-31 renal
M14 melanoma = tested on: M14 melanoma
MDA-MB-435 = tested on: MDA-MB-435
MCF7 breast = tested on: MCF7 breast
NCI-H226 lung = tested on: NCI-H226 lung
SW-620 colon = tested on: SW-620 colon
HOP-62 NSCLC = tested on: HOP-62 NSCLC
SK-MEL-28 melanoma = tested on: SK-MEL-28 melanoma
SF-539 CNS = tested on: SF-539 CNS
SN12C renal = tested on: SN12C renal
SK-MEL-5 melanoma = tested on: SK-MEL-5 melanoma
T-47D breast = tested on: T-47D breast
PC-3 prostate = tested on: PC-3 prostate
HCT-116 colon = tested on: HCT-116 colon
DU-145 prostate = tested on: DU-145 prostate
NCI/ADR-RES ovarian = tested on: NCI/ADR-RES ovarian
SNB-75 CNS = tested on: SNB-75 CNS
HOP-92 NSCLC = tested on: HOP-92 NSCLC
RPMI-8226 leukemia = tested on: RPMI-8226 leukemia
NCI-H460 lung = tested on: NCI-H460 lung
BT-549 breast = tested on: BT-549 breast
A498 renal = tested on: A498 renal
NCI-H23 lung = tested on: NCI-H23 lung
LOX IMVI melanoma = tested on: LOX IMVI melanoma
K-562 leukemia = tested on: K-562 leukemia
IGROV1 ovarian = tested on: IGROV1 ovarian
MDA-MB-231 breast = tested on: MDA-MB-231 breast
SF-295 CNS = tested on: SF-295 CNS
SNB-19 CNS = tested on: SNB-19 CNS
786-0 renal = tested on: 786-0 renal
HCT-15 colon = tested on: HCT-15 colon
KM12 colon = tested on: KM12 colon
MOLT-4 leukemia = tested on: MOLT-4 leukemia
COLO 205 colon = tested on: COLO 205 colon
EKVX NSCLC = tested on: EKVX NSCLC
HCC-2998 colon = tested on: HCC-2998 colon
OVCAR-8 ovarian = tested on: OVCAR-8 ovarian
TK-10 renal = tested on: TK-10 renal
HT29 colon = tested on: HT29 colon
OVCAR-4 ovarian = tested on: OVCAR-4 ovarian
A549 NSCLC = tested on: A549 NSCLC
OVCAR-3 ovarian = tested on: OVCAR-3 ovarian
ACHN renal = tested on: ACHN renal
MALME-3M melanoma = tested on: MALME-3M melanoma
CAKI-1 renal = tested on: CAKI-1 renal

With `Cc1ccccc1OC(C)C(=O)NN1C(=O)CC(=O)N(c2ccccc2)C1=S` (stereo unspecified) the TGI (SK-MEL-2 melanoma) was > 100 µM, the TGI (SK-OV-3 ovarian) was > 100 µM and the TGI (UACC-257 melanoma) was > 100 µM. For the same compound, the TGI (NCI-H522 lung) was > 100 µM, the TGI (SF-268 CNS) was > 100 µM and the TGI (UACC-62 melanoma) was > 100 µM. For the same compound, the TGI (U251 CNS) was > 100 µM, the TGI (HL-60(TB) leukemia) was 61.2 µM and the TGI (HS 578T breast) was > 100 µM. For the same compound, the TGI (OVCAR-5 ovarian) was > 100 µM, the TGI (RXF 393 renal) was > 100 µM and the TGI (UO-31 renal) was > 100 µM. The TGI (M14 melanoma) was > 100 µM, the TGI (MDA-MB-435) was > 100 µM and the TGI (MCF7 breast) was > 100 µM. The TGI (NCI-H226 lung) was > 100 µM, the TGI (SW-620 colon) was > 100 µM and the TGI (HOP-62 NSCLC) was > 100 µM. The TGI (SK-MEL-28 melanoma) was > 100 µM, the TGI (SF-539 CNS) was > 100 µM and the TGI (SN12C renal) was > 100 µM. The TGI (SK-MEL-5 melanoma) was > 100 µM, the TGI (T-47D breast) was > 100 µM and the TGI (PC-3 prostate) was > 100 µM. For the same compound, the TGI (HCT-116 colon) was > 100 µM, the TGI (DU-145 prostate) was > 100 µM and the TGI (NCI/ADR-RES ovarian) was > 100 µM. The TGI (SNB-75 CNS) was > 100 µM, the TGI (HOP-92 NSCLC) was > 100 µM and the TGI (RPMI-8226 leukemia) was > 100 µM. The TGI (NCI-H460 lung) was > 100 µM, the TGI (BT-549 breast) was > 100 µM and the TGI (A498 renal) was > 100 µM. For the same compound, the TGI (NCI-H23 lung) was > 100 µM, the TGI (LOX IMVI melanoma) was > 100 µM and the TGI (K-562 leukemia) was > 100 µM. For the same compound, the TGI (IGROV1 ovarian) was > 100 µM, the TGI (MDA-MB-231 breast) was > 100 µM and the TGI (SF-295 CNS) was > 100 µM. For the same compound, the TGI (SNB-19 CNS) was > 100 µM, the TGI (786-0 renal) was > 100 µM and the TGI (HCT-15 colon) was > 100 µM. For the same compound, the TGI (KM12 colon) was > 100 µM, the TGI (MOLT-4 leukemia) was > 100 µM and the TGI (COLO 205 colon) was > 100 µM. The TGI (EKVX NSCLC) was > 100 µM, the TGI (HCC-2998 colon) was > 100 µM and the TGI (OVCAR-8 ovarian) was > 100 µM. For the same compound, the TGI (TK-10 renal) was > 100 µM, the TGI (HT29 colon) was > 100 µM and the TGI (OVCAR-4 ovarian) was > 100 µM. The TGI (A549 NSCLC) was > 100 µM, the TGI (OVCAR-3 ovarian) was > 100 µM and the TGI (ACHN renal) was > 100 µM. The TGI (MALME-3M melanoma) was > 100 µM and the TGI (CAKI-1 renal) was > 100 µM.
